In ChEMBL document CHEMBL3352806, “Cytotoxic bibenzyl dimers from the stems of Dendrobium fimbriatum Hook” (Bioorg Med Chem Lett, 2014):
Activity calls are given as the source filed them. No cut-off for these calls is given here.

Key:
Type in all cases: functional, cell-based
[1] = Cytotoxicity against human HL60 cells assessed as reduction in cell number; conditions: HL-60
SMMC-7721 [2] = test: Cytotoxicity against human SMMC7721 cells assessed as reduction in cell number
A549 [3] = test: Cytotoxicity against human A549 cells assessed as reduction in cell number
MCF7 [4] = test: Cytotoxicity against human MCF7 cells assessed as reduction in cell number
SW480 [5] = test: Cytotoxicity against human SW480 cells assessed as reduction in cell number
HL-60 = test: Cytotoxicity against human HL60 cells assessed as reduction in cell number at 40 uM
SMMC-7721 [6] = test: Cytotoxicity against human SMMC7721 cells assessed as reduction in cell number at 40 uM
A549 [7] = test: Cytotoxicity against human A549 cells assessed as reduction in cell number at 40 uM
MCF7 [8] = test: Cytotoxicity against human MCF7 cells assessed as reduction in cell number at 40 uM
SW480 [9] = test: Cytotoxicity against human SW480 cells assessed as reduction in cell number at 40 uM

With `COc1cc(O)c(Cc2c(O)cc(OC)cc2CCc2ccc(O)c(OC)c2)c(CCc2ccc(O)c(OC)c2)c1` the IC50 [1] was 19.1 µM, the IC50 (SMMC-7721 [2]) was 17.5 µM and the IC50 (A549 [3]) was 16.6 µM. The IC50 (MCF7 [4]) was 13.7 µM and the IC50 (SW480 [5]) was 18.8 µM.
Work on `COc1cc(CCc2cc(OC)c(O)c(OC)c2)ccc1O` [MOSCATILIN] yielded an IC50 [1] of 2.18 µM, an IC50 (SMMC-7721 [2]) of 4.07 µM and an IC50 (A549 [3]) of 5.73 µM. It also gave an IC50 (MCF7 [4]) of 6.2 µM and an IC50 (SW480 [5]) of 6.88 µM.
With `COc1cc(CC(OC)c2cc(OC)c(O)c(OC)c2)ccc1O` (stereo not given) the Activity (HL-60) was “inactive”, the Activity (SMMC-7721 [6]) was “inactive” and the Activity (A549 [7]) was “inactive”. The Activity (MCF7 [8]) was “inactive” and the Activity (SW480 [9]) was “inactive”.
With `COc1cc(CCc2cc(O)cc(OC)c2Cc2c(CCc3ccc(O)c(OC)c3)cc(O)cc2OC)ccc1O` the IC50 [1] was 13.9 µM, the IC50 (SMMC-7721 [2]) was 16.9 µM and the IC50 (A549 [3]) was 14.5 µM. For the same compound, the IC50 (MCF7 [4]) was 5.85 µM and the IC50 (SW480 [5]) was 18.8 µM.
Compound `COc1cc(O)c(Cc2c(CCc3ccc(O)c(OC)c3)cc(O)cc2OC)c(CCc2ccc(O)c(OC)c2)c1` has an IC50 [1] of 16.8 µM, an IC50 (SMMC-7721 [2]) of 18.9 µM and an IC50 (A549 [3]) of 16.5 µM. For the same compound, the IC50 (MCF7 [4]) was 7.75 µM and the IC50 (SW480 [5]) was 21.2 µM.
For `Oc1cc(O)c2c(c1)C[C@H](O)c1cccc(O)c1-2`, the Activity (HL-60) was “inactive”, the Activity (SMMC-7721 [6]) was “inactive” and the Activity (A549 [7]) was “inactive”. The Activity (MCF7 [8]) was “inactive” and the Activity (SW480 [9]) was “inactive”.
For `COc1ccc(CCc2cc(OC)c(O)c(OC)c2)cc1O`, the IC50 [1] was 2.95 µM, the IC50 (SMMC-7721 [2]) was 10.1 µM and the IC50 (A549 [3]) was 6.6 µM. The IC50 (MCF7 [4]) was 12.3 µM and the IC50 (SW480 [5]) was 5.17 µM.
For `COc1cc(CCc2cc(O)cc(O)c2Cc2c(O)cc(O)cc2CCc2ccc(O)c(OC)c2)ccc1O`, the Activity (HL-60) was “inactive”, the Activity (SMMC-7721 [6]) was “inactive” and the Activity (A549 [7]) was “inactive”. For the same compound, the Activity (MCF7 [8]) was “inactive” and the Activity (SW480 [9]) was “inactive”.
With `COc1cc(CCc2cc(O)c(Cc3c(CCc4ccc(O)c(OC)c4)cc(O)cc3OC)c(OC)c2)ccc1O` the IC50 [1] was 15.8 µM, the IC50 (SMMC-7721 [2]) was 16.6 µM and the IC50 (A549 [3]) was 15.6 µM. The IC50 (MCF7 [4]) was 12.1 µM and the IC50 (SW480 [5]) was 18.2 µM.
With `COc1cc(CCc2cc(O)c(OC)c(OC)c2)ccc1O` the IC50 [1] was 24.3 µM, the IC50 (SMMC-7721 [2]) was > 40 µM and the IC50 (A549 [3]) was > 40 µM. For the same compound, the IC50 (MCF7 [4]) was 37.1 µM and the IC50 (SW480 [5]) was > 40 µM.
In the case of `COc1cc(CCc2cc(O)cc(O)c2)ccc1O`, the Activity (HL-60) is reported as “inactive”, the Activity (SMMC-7721 [6]) is reported as “inactive” and the Activity (A549 [7]) is reported as “inactive”. For the same compound, the Activity (MCF7 [8]) was “inactive” and the Activity (SW480 [9]) was “inactive”.
Compound `COc1cc(O)c(Cc2c(O)cc(CCc3ccc(O)c(OC)c3)cc2OC)c(CCc2ccc(O)c(OC)c2)c1` has an IC50 [1] of 16.1 µM, an IC50 (SMMC-7721 [2]) of 18.3 µM and an IC50 (A549 [3]) of 16.3 µM. The IC50 (MCF7 [4]) was 12.7 µM and the IC50 (SW480 [5]) was 17.2 µM.
In the case of `COc1cc(O)cc(CCc2ccc(O)c(OC)c2)c1`, the Activity (HL-60) is reported as “inactive”, the Activity (SMMC-7721 [6]) is reported as “inactive” and the Activity (A549 [7]) is reported as “inactive”. For the same compound, the Activity (MCF7 [8]) was “inactive” and the Activity (SW480 [9]) was “inactive”.
With `COc1cc(O)cc(CCc2cccc(O)c2)c1` the Activity (HL-60) was “inactive”, the Activity (SMMC-7721 [6]) was “inactive” and the Activity (A549 [7]) was “inactive”. The Activity (MCF7 [8]) was “inactive” and the Activity (SW480 [9]) was “inactive”.
For `COc1cc(CCc2cc(O)c(Cc3c(CCc4cccc(O)c4)cc(O)cc3OC)c(OC)c2)ccc1O`, the IC50 [1] was 22.3 µM, the IC50 (SMMC-7721 [2]) was > 40 µM and the IC50 (A549 [3]) was > 40 µM. The IC50 (MCF7 [4]) was 24.8 µM and the IC50 (SW480 [5]) was > 40 µM.
